The values that follow come from US9957270B2, “Fused pyrimidine-based hydroxamate derivatives” (Agency for Science, Technology and Research, priority 2014, dated 2018).

A short description of data set [1]: Microsomal stability, human liver microsomes. As to conditions: human, microsomes, 0.75 h, 5 μM, pH 7.4. The procedure:
(§1) GIBIO pooled human liver microsomes (HLM) (Cat # HMMCPL), mouse liver microsomes (MLM) (Cat # BCMCPL), and rat liver microsomes (RLM) (Cat # RTMCPL) were purchased from Life Technologies. […] Samples are incubated for 30, 45, or 60 min. Reaction is terminated with ice-cold acetonitrile 0.3% formic acid. Samples are subsequently centrifuged at 4° C. for 15 min at 20,000×g. The supernatant is analysed by LC-MS.
(§2) Compound in vitro metabolic stability was assayed using liver microsomes (LM) at 0.5 mg/mL of proteins, incubated for 30 min (mouse, MLM), 45 min (rat, RLM), 30 or 45 min (human, HLM). % of remaining parent compound was measured using LC-MS.

Data set [2] in a line: Microsomal stability, rat liver microsomes. As to conditions: rat, microsomes, 0.75 h, 5 μM, pH 7.4. The procedure: as §1, §2
On the technique in general: Liver microsomes are a subcellular fraction often used to study metabolism.

The target in a further data set is HDAC1 (Homo sapiens, UniProt Q13547). The data set can be described thus: HDAC enzyme assay, recombinant HDAC1.
The next data set relates to MCF7. Description: Anti-proliferative assay (cellular IC50), MCF7. As to conditions: Homo sapiens, MCF7, 72 h, read-out: In Vitro Cellular IC50 MCF7.
Another data set concerns K-562. The data set can be described thus: Anti-proliferative assay (cellular IC50), K-562. As to conditions: Homo sapiens, K562, 72 h, read-out: In Vitro Cellular IC50 K-562.
Another data set has as its system COLO 205. The data set can be described thus: cells. As to conditions: Homo sapiens, COLO 205, 72 h, read-out: In Vitro Cellular IC50 COLO 205.
In another data set the test system is MV-4-11. Description: cells. As to conditions: Homo sapiens, MV4-11, 72 h, read-out: In Vitro Cellular IC50 MV-4-11.
Data set [3] deals with HDAC (HeLa nuclear extracts). Description: HDAC enzyme assay, HeLa nuclear extracts. Particulars: read-out: In Vitro Enzymatic IC50 HDAC (HeLa).
The subject of the next data set is PC-3. Description: Anti-proliferative assay (cellular IC50), PC-3. As to conditions: Homo sapiens, PC-3, 72 h, read-out: In Vitro Cellular IC50 PC-3.
Another data set relates to HepG2. Description: Anti-proliferative assay (cellular IC50), HepG2. As to conditions: Homo sapiens, HepG2, 72 h, read-out: In Vitro Cellular IC50 HepG2.
In the next data set the test system is HCT 116. Description: cells. Particulars: Homo sapiens, HCT-116, 72 h, read-out: In Vitro Cellular IC50 HCT 116.
Another data set concerns MOLT-4. Description: Anti-proliferative assay (cellular IC50), MOLT-4. Particulars: Homo sapiens, MOLT-4, 72 h, read-out: In Vitro Cellular IC50 MOLT-4.
The target of a further data set is T1, PI3Kα (Homo sapiens, UniProt P42336).
T1 construct: purchased Invitrogen, or BPS Bioscience Inc., or SignalChem PV4788 / 40620 / P27-18H
The data set can be described thus: Kinase enzyme assay (ADP-Glo), PI3Kα. Particulars: read-out: In Vitro Enzymatic IC50 PI3Kα. In kind it is biochemical. For orientation: ADP-Glo turns the ADP formed in a reaction into a luminescent signal.

Another data set has as its target T2, HDAC6 (Homo sapiens, UniProt Q9UBN7).
T2 sequence (Q9UBN7 1-1215): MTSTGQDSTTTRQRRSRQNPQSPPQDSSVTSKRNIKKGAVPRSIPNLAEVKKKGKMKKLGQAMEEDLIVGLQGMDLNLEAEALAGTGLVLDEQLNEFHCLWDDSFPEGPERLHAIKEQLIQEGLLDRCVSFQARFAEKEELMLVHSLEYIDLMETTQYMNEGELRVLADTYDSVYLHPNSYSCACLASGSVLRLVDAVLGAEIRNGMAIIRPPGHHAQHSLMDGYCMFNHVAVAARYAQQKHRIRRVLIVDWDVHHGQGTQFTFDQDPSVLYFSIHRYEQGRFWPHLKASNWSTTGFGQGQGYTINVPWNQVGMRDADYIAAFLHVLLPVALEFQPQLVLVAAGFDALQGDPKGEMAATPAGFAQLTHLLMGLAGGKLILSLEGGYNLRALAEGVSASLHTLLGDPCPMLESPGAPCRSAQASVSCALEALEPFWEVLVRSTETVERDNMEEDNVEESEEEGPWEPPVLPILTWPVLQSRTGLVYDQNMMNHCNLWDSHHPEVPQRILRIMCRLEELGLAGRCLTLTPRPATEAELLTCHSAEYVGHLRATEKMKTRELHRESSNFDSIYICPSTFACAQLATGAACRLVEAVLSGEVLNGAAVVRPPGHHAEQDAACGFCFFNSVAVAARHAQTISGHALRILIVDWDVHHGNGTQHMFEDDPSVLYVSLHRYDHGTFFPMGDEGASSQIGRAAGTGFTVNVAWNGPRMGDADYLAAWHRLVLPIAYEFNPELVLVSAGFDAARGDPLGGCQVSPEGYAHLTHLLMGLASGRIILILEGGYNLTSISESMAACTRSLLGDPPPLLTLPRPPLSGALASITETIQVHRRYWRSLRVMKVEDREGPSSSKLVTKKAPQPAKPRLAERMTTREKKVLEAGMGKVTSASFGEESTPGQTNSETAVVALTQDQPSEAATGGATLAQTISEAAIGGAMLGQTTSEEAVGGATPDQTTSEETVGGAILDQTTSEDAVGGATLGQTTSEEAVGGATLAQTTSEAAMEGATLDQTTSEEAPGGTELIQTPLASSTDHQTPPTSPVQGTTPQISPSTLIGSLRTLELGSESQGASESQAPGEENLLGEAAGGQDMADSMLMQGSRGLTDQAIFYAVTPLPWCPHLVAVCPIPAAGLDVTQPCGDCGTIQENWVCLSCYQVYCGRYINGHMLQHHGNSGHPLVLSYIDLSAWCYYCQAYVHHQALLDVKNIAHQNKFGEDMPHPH
Description: HDAC enzyme assay, recombinant HDAC6.

Bounds are passed on as bounds.

T1 sequence (P42336 whole entry): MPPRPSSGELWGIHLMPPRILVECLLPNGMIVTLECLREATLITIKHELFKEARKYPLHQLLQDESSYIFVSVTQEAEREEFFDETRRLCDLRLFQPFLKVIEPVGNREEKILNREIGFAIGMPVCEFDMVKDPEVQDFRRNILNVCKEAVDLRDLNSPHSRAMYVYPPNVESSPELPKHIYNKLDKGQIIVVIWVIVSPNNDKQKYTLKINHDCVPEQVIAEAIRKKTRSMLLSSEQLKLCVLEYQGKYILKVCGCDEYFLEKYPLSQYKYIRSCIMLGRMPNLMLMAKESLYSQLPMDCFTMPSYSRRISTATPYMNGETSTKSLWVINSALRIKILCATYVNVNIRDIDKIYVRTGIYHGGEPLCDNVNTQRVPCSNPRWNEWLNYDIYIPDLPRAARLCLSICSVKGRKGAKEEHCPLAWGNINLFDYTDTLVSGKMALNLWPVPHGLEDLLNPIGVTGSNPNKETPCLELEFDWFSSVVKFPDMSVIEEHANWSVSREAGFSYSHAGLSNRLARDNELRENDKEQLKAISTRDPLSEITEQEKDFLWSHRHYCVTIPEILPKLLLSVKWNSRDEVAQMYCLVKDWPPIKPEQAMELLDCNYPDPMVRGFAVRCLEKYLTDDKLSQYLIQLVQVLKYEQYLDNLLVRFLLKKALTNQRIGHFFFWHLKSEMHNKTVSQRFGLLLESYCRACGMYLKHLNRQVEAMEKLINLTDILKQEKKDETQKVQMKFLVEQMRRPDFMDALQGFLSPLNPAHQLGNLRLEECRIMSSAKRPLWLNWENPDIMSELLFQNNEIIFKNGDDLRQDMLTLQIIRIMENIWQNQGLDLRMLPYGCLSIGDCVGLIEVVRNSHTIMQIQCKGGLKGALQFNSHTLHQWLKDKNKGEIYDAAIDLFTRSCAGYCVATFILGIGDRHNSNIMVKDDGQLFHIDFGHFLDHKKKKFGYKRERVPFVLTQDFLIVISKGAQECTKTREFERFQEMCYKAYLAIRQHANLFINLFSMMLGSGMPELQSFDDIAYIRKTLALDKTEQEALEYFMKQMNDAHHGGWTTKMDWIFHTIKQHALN
T1 sequence (P27986 whole entry partner): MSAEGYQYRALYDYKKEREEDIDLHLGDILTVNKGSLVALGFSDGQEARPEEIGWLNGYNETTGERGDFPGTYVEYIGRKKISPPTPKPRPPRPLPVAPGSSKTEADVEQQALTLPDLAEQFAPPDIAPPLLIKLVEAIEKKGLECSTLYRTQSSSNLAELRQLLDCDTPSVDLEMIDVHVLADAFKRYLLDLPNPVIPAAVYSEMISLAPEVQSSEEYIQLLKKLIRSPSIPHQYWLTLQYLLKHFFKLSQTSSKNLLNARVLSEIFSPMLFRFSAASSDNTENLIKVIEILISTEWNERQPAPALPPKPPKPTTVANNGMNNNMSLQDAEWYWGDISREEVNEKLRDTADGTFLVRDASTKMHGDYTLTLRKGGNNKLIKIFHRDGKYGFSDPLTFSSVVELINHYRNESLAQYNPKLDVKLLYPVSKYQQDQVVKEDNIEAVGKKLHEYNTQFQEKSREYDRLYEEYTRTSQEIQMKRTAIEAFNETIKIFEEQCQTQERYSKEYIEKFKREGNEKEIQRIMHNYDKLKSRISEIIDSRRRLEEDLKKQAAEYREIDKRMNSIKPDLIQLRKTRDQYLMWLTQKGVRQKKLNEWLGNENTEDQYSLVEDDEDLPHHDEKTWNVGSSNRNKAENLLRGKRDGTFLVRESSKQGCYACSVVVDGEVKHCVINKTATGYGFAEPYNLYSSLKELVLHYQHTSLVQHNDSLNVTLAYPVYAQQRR
Chain of HDAC1 (Q13547 whole entry): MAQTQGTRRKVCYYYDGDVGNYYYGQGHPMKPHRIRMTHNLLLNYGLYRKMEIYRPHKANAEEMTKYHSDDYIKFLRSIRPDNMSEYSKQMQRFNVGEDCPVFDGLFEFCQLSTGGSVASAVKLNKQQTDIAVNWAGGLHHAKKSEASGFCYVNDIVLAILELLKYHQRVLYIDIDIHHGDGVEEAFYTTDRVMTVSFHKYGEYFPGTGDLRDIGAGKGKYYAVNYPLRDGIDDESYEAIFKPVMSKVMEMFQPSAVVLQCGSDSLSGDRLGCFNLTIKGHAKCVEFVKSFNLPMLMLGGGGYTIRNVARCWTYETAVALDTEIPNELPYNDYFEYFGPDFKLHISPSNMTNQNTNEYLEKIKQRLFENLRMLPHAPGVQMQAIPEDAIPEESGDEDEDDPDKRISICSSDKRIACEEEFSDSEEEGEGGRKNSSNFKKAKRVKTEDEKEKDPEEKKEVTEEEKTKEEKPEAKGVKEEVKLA

The IC50 is the midpoint of a concentration-inhibition curve. Consider `CC(C)n1cnc2c(-c3cccc(NC(=O)CCCCCCC(=O)NO)c3)nc(N3CCOCC3)nc21` [compound 4], for which the “Microsomal Stability HLM, % of remaining parent compound” value in data set [1] worked out at 36%. For the same molecule, the “Microsomal Stability RLM, % of remaining parent compound” value in data set [2] worked out at 42%. Further, the IC50 is 10 to 100 nM at HDAC1, 500 to 2000 nM with MCF7 and 500 to 2000 nM in the data set on K-562.

Turning to `CC(C)n1cnc2c(-c3ccc(F)c(OCCCC(=O)NO)c3)nc(N3CCOCC3)nc21` [compound 62, 4-(2-fluoro-5-(9-isopropyl-2-morpholino-9H-purin-6-yl)phenoxy)-N-hydroxybutanamide], the IC50 was 2000 to 10000 nM in the data set on COLO 205; below 500 nM with MV-4-11; 10 to 100 nM in [3]; 500 to 2000 nM in the data set on MCF7; 2000 to 10000 nM in the data set on PC-3; 500 to 2000 nM in the data set on HepG2.

Consider `CC(C)n1ccc2c(-c3cccc(OCCCC(=O)NO)c3)nc(N3CCCC3)nc21` [compound 75, N-hydroxy-4-(3-(7-isopropyl-2-(pyrrolidin-1-yl)-7H-pyrrolo[2,3-d]pyrimidin-4-yl)phenoxy)butanamide], for which the IC50 in the data set with HCT 116 is 500 to 2000 nM; with MV-4-11, below 500 nM; in data set [3] it was 10 to 100 nM; with MCF7, 500 to 2000 nM; in the data set on PC-3, 2000 to 10000 nM; in the data set on HepG2, 2000 to 10000 nM.

As to `CC(C)n1ccc2c(-c3cccc(OCCCC(=O)NO)c3)nc(N3CCOCC3)nc21` [compound 76, N-hydroxy-4-(3-(7-isopropyl-2-morpholino-7H-pyrrolo[2,3-d]pyrimidin-4-yl)phenoxy)butanamide], the IC50 in the data set on HCT 116 is below 500 nM; in the data set on MV-4-11 it was below 500 nM; at HDAC1, 10 to 100 nM; in data set [3], 10 to 100 nM; in the data set on MCF7, 500 to 2000 nM; with PC-3 it was 500 to 2000 nM. Moreover, the IC50 was 500 to 2000 nM with HepG2, 500 to 2000 nM in the data set on K-562 and below 500 nM with MOLT-4.

On to `CC(C)n1cnc2c(N3CCOCC3)nc(-c3ccc(OCCCC(=O)NO)cc3)nc21` [compound 82, N-hydroxy-4-(4-(9-isopropyl-6-morpholino-9H-purin-2-yl)phenoxy)butanamide], for which the “Microsomal Stability HLM, % of remaining parent compound” value in [1] stood at 83%. In addition, the “Microsomal Stability RLM, % of remaining parent compound” value in data set [2] was determined as 64%. For the same molecule, the IC50 was above 10000 nM in the data set on COLO 205; 500 to 2000 nM in the data set with MV-4-11; 10 to 100 nM in [3]; 2000 to 10000 nM in the data set on MCF7; above 10000 nM in the data set on PC-3.

For `CCn1c(CNCCCCCC(=O)NO)nc2c(N3CCOCC3)nc(-c3cnc(N)nc3)nc21` [compound 87, 6-(((2-(2-aminopyrimidin-5-yl)-9-ethyl-6-morpholino-9H-purin-8-yl)methyl)amino)-N-hydroxyhexanamide], the IC50 at PI3Kα is 10 to 100 nM; with COLO 205 it was above 10000 nM; on HDAC1 it was 100 to 1000 nM; at HDAC6, 100 to 1000 nM; in data set [3], 100 to 1000 nM; in the data set on K-562, above 10000 nM. For the same molecule, in the data set on MOLT-4, the IC50 was 2000 to 10000 nM.

Turning to `CCn1c(CN(C)Cc2ccc(/C=C/C(=O)NO)cc2)nc2c(N3CCOCC3)nc(-c3ccc(C(N)=O)cc3)nc21` [compound 90, (E)-4-(9-ethyl-8-(((4-(3-(hydroxyamino)-3-oxoprop-1-en-1-yl)benzyl)(methyl)amino)methyl)-6-morpholino-9H-purin-2-yl)benzamide], the concentration for half-maximal inhibition (IC50) lay in the range of 100 to 1000 nM on PI3Kα; 2000 to 10000 nM in the data set with COLO 205; 100 to 1000 nM at HDAC1; 100 to 1000 nM in data set [3]; 2000 to 10000 nM with K-562; 2000 to 10000 nM in the data set on MOLT-4.

As for `CCn1c(CN(C)Cc2ccc(/C=C/C(=O)NO)cc2)nc2c(N3CCOCC3)nc(-c3cccc(C(N)=O)c3)nc21` [compound 91, (E)-3-(9-ethyl-8-(((4-(3-(hydroxyamino)-3-oxoprop-1-en-1-yl)benzyl)(methyl)amino)methyl)-6-morpholino-9H-purin-2-yl)benzamide], the IC50 lay within 100 to 1000 nM on PI3Kα; 2000 to 10000 nM in the data set on COLO 205; 100 to 1000 nM on HDAC1; 100 to 1000 nM in [3]; 2000 to 10000 nM in the data set with K-562; 2000 to 10000 nM with MOLT-4.

As to `CCn1c(CN(C)Cc2ccc(/C=C/C(=O)NO)cc2)nc2c(N3CCOCC3)nc(-c3cccc(NC(C)=O)c3)nc21` [compound 92, (E)-3-(4-((((2-(3-acetamidophenyl)-9-ethyl-6-morpholino-9H-purin-8-yl)methyl)(methyl)amino)methyl)phenyl)-N-hydroxyacrylamide], the IC50 on PI3Kα was 100 to 1000 nM; in the data set with COLO 205 it was 2000 to 10000 nM; at HDAC1, 100 to 1000 nM; at HDAC6, 100 to 1000 nM; in data set [3], 100 to 1000 nM; in the data set with K-562, 2000 to 10000 nM. Moreover, the IC50 in the data set on MOLT-4 lay within 2000 to 10000 nM.

On to `CCn1c(CN(C)Cc2ccc(C(=O)NO)cc2)nc2c(N3CCOCC3)nc(-c3ccc(OC)nc3)nc21` [compound 96, 4-((((9-ethyl-2-(6-methoxypyridin-3-yl)-6-morpholino-9H-purin-8-yl)methyl)(methyl)amino)methyl)-N-hydroxybenzamide], for which the IC50 in the data set with COLO 205 fell in the range of 500 to 2000 nM; with HCT 116, 500 to 2000 nM; in the data set on MV-4-11, 500 to 2000 nM; in data set [3], 100 to 1000 nM; in the data set with MCF7, 500 to 2000 nM; with PC-3, 2000 to 10000 nM. In addition, the 50% inhibitory concentration (IC50) with HepG2 was 500 to 2000 nM; in the data set on K-562 it was 2000 to 10000 nM; in the data set on MOLT-4, 500 to 2000 nM.

On to `CCn1c(CN(C)CCCCCC(=O)NO)nc2c(N3CCOCC3)nc(-c3cccc(CO)c3)nc21` [compound 97], for which the IC50 on PI3Kα lay within 10 to 100 nM; in the data set with MV-4-11, 500 to 2000 nM; at HDAC1, 10 to 100 nM; at HDAC6, 100 to 1000 nM; in [3], 100 to 1000 nM; with MCF7, 2000 to 10000 nM. The IC50 in the data set on PC-3 and in the data set on HepG2 was 2000 to 10000 nM throughout.

As for `CCC(CC)n1cnc2c(-c3cccc(OCCCC(=O)NO)c3)nc(N3CCOCC3)nc21` [compound 101, N-hydroxy-4-(3-(2-morpholino-9-(pentan-3-yl)-9H-purin-6-yl)phenoxy)butanamide], the IC50 was 500 to 2000 nM with HCT 116; below 500 nM in the data set with MV-4-11; 10 to 100 nM in data set [3]; below 500 nM in the data set on MCF7; 500 to 2000 nM in the data set on HepG2; below 500 nM with MOLT-4.
